{"source": "patent US20050053704A1", "about": "“Acidic composition and its uses” (Mionix Corporation, priority 2003, published 2005)", "key": {"L. monocytogenes [1]": {"tested_on": "L. monocytogenes", "details": "cited from earlier work"}, "[2]": {"test": "Contact of acidic solution with human skin", "details": "solution with a pH of less than 0.5"}, "L. monocytogenes [3]": {"tested_on": "L. monocytogenes", "details": "dipping in 5% acid, refrigerated storage; cited from earlier work"}}, "note": "Where two headings read alike, the source gives them in different places."}
{"smiles": "CC(O)C(=O)[O-].[Na+]", "note": "(stereo not drawn) [Sodium lactate]", "values": [{"measurement": "Effect on growth of L. monocytogenes", "setting": "L. monocytogenes [1]; 3 or 4% compared to 0 or 2%, cooked beef stored at 10° C. (Miller and Acuff 1994)", "result": "effective against the growth"}]}
{"smiles": "CC(O)C(=O)O", "note": "(stereo not drawn) [lactate]", "values": [{"measurement": "Effect on growth of L. monocytogenes", "setting": "L. monocytogenes [1]; lactate (4%), sterile broth, chicken and beef (Shelef and Yang 1991)", "result": "growth suppression"}, {"measurement": "Listeristatic effect, L. monocytogenes strain Scott A", "setting": "L. monocytogenes [1]; lactate concentrations less than 4%, meat model system (Chen and Shelef 1992)", "result": "not listeristatic"}]}
{"smiles": "O=S(=O)(O)O", "note": "[sulfuric acid]", "values": [{"measurement": "Irritation of a hand put into the solution", "setting": "[2]", "result": "an irritation would occur within a relatively short span of time"}]}
{"smiles": "CC(O)C(=O)O", "note": "(stereo not drawn) [lactic acid]", "values": [{"measurement": "Effect on L. monocytogenes of dipping in acid", "setting": "L. monocytogenes [3]", "result": "not only killed, but also prevented from growing during 90 days of refrigerated storage"}]}
{"smiles": "CC(=O)O", "note": "[acetic acid]", "values": [{"measurement": "Effect on L. monocytogenes of dipping in acid", "setting": "L. monocytogenes [3]", "result": "not only killed, but also prevented from growing during 90 days of refrigerated storage"}]}
